Reference: patent US3970648A, “2-[2-(5-Nitro-2-furyl)vinyl]-4-(anilino)quinazolines” (Diamond Shamrock Corporation, priority 1974, dated 1976)

Key:
Type in all cases: cell-based
Salmonella typhimurium = assay: Bactericide test, Salmonella typhimurium (agar streak plate); details: Salmonella enterica, TYPHIMURIUM
Method in brief: (§1)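 Compounds were formulated with Triton X-155/acetone emulsifier (basic formulation 320 ppm, serially diluted) and mixed 2:8 into molten nutrient-tryptic soy agar. Organisms were streaked onto the plates and incubated 48 hr at 28°C. Growth inhibition was scored visually against untreated agar as 0, 50 or 100% control.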

Staphylococcus aureus = assay: Bactericide test, Staphylococcus aureus (agar streak plate); details: Staphylococcus aureus
Method in brief: (§2)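 Compounds in Triton X-155/acetone emulsifier (basic formulation 320 ppm, diluted serially) were mixed 2:8 into molten nutrient-tryptic soy agar, then organisms streaked on the set plates. After 48 hr at 28°C, growth was scored visually against untreated agar as 0%, 50% (sparse, separated colonies) or 100% control (no visible colonies).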

Vibrio coli = assay: Bactericide test, Vibrio coli (agar streak plate)
Method in brief: as §1

Salmonella cholerasuis = assay: Bactericide test, Salmonella cholerasuis (agar streak plate); details: Salmonella
Method in brief: as §2

[1] = test system: Erysipelothrix rhusiopathiae; assay: Bactericide test, Erysipelothrix rhusiopathiae (agar streak plate)
Method in brief: as §1

Escherichia coli = assay: Bactericide test, Escherichia coli (agar streak plate)
Description: Test formulations were examined for bactericidal and/or bacteriostatic activity against the test organisms shown in Tables A and B. These organisms were chosen as being representative of commercially important pathogens affecting animal agriculture. The antibiotic chlortetracycline was chosen as a positive control, since it has a broad spectrum of activity against a large number of organisms, and its activity can be used for comparative purposes.
Basic test formulations of the product of Examples I, II, III, and of chlortetracycline were prepared by dissolving 16 mg (0.016 g) in 2.0 ml of stock emulsifier solution (0.25% Triton X-155 in acetone by volume) and making each solution up to 50 ml with deionized water. The concentration of the test compound in the basic formulation was 320 ppm. Lower concentrations of the test compound were obtained by diluting the basic formulation with a 4% solution of the stock emulsifier in deionized water so that each dilution in the series differed only in test compound content.
Nutrient-tryptic soy agar (NTA) consisting of 2.0% Difco Bactoagar 0.8% nutrient broth (Difco), and 0.5% tryptic soy broth (Difco) was prepared and sterilized by autoclaving. A 2 ml aliquot of each test formulation was added to 8 ml of molten NTA. This mixture was then plated in a sterile polystyrene petri dish (100 × 15 mm). After the agar was set, suspensions of each of the test organisms were simultaneously streaked onto the surface of the agar. The inoculated plates were incubated for 48 hr at 28°C. The inhibition of growth of each organism was rated by visual comparison with the organism developing on non-treated agar. Growth inhibition reported as per cent control was rated in three categories as follows: 0% control, growth equivalent to that on non-treated agar; 50% control, sparse development and separated colonies; 100% control, no visible growth or development of colonies.
Test formulations of the product of Example IV were examined for bactericidal and/or bacteriostatic activity against the test organisms shown in Table B using the Bactericide Test described in Example V. The inhibition of organism growth with each diluted test formulation was rated visually by comparison with the organism developing on a non-treated control agar plate. Growth inhibition reported as per cent control was rated in three categories as follows: 0% control, growth equivalent to that on non-treated agar; 50% control is sparse development and separated colonies; and 100% control, development of individual colonies was not apparent.

[2] = 100% inhibition at lower concentrations

## O=[N+]([O-])c1ccc(C=Cc2nc(Nc3cccc(O)c3)c3ccccc3n2)o1 [Example II, 2-[2-(5-nitro-2-furyl)vinyl]-4-(m-hydroxyanilino)quinazoline]
Salmonella typhimurium; 2 ppm
  inhibition at 2 ppm: 0%
Salmonella typhimurium; 4 ppm, read-out: % Inhibition
  inhibition at 4 ppm: 0%
Salmonella typhimurium; 8 ppm
  inhibition at 8 ppm: 0%
Salmonella typhimurium; 16 ppm, read-out: % Inhibition
  inhibition at 16 ppm: 0%
Salmonella typhimurium; 32 ppm
  inhibition at 32 ppm: 0%
Salmonella typhimurium; 64 ppm, read-out: % Inhibition
  inhibition at 64 ppm: 0%
Staphylococcus aureus; 0.125 ppm
  inhibition at 0.125 ppm: 0%
Staphylococcus aureus; 0.25 ppm
  inhibition at 0.25 ppm: 0%
Staphylococcus aureus; 0.5 ppm
  inhibition at 0.5 ppm: 0%
Staphylococcus aureus; 1 ppm, read-out: % Inhibition
  inhibition at 1 ppm: 0%
Staphylococcus aureus; 2 ppm
  inhibition at 2 ppm: 0%
Staphylococcus aureus; 4 ppm, read-out: % Inhibition
  inhibition at 4 ppm: 0%
Staphylococcus aureus; 8 ppm
  inhibition at 8 ppm: 0%
Staphylococcus aureus; 16 ppm, read-out: % Inhibition
  inhibition at 16 ppm: 0%
Staphylococcus aureus; 32 ppm
  inhibition at 32 ppm: 0%
Staphylococcus aureus; 64 ppm, read-out: % Inhibition
  inhibition at 64 ppm: 0%
Vibrio coli; [2]
  effectiveness compared with chlortetracycline (in words): considerably more effective
Vibrio coli; Campylobacter coli, 0.125 ppm
  inhibition at 0.125 ppm: 100%
Vibrio coli; Campylobacter coli, 0.25 ppm
  inhibition at 0.25 ppm: 100%
Vibrio coli; Campylobacter coli, 0.5 ppm
  inhibition at 0.5 ppm: 100%
Vibrio coli; Campylobacter coli, 1 ppm
  inhibition at 1 ppm: 100%
Vibrio coli; Campylobacter coli, 2 ppm
  inhibition at 2 ppm: 100%
Vibrio coli; Campylobacter coli, 4 ppm
  inhibition at 4 ppm: 100%
Vibrio coli; Campylobacter coli, 8 ppm
  inhibition at 8 ppm: 100%
Vibrio coli; Campylobacter coli, 16 ppm
  inhibition at 16 ppm: 100%
Vibrio coli; Campylobacter coli, 32 ppm
  inhibition at 32 ppm: 100%
Vibrio coli; Campylobacter coli, 64 ppm
  inhibition at 64 ppm: 100%
Salmonella cholerasuis; 0.125 ppm
  inhibition at 0.125 ppm: 0%
Salmonella cholerasuis; 0.25 ppm
  inhibition at 0.25 ppm: 0%
Salmonella cholerasuis; 0.5 ppm
  inhibition at 0.5 ppm: 0%
Salmonella cholerasuis; 1 ppm, read-out: % Inhibition
  inhibition at 1 ppm: 0%
Salmonella cholerasuis; 2 ppm
  inhibition at 2 ppm: 0%
Salmonella cholerasuis; 4 ppm, read-out: % Inhibition
  inhibition at 4 ppm: 0%
Salmonella cholerasuis; 8 ppm
  inhibition at 8 ppm: 0%
Salmonella cholerasuis; 16 ppm, read-out: % Inhibition
  inhibition at 16 ppm: 0%
Salmonella cholerasuis; 32 ppm
  inhibition at 32 ppm: 0%
Salmonella cholerasuis; 64 ppm, read-out: % Inhibition
  inhibition at 64 ppm: 0%
[1]; [2]
  effectiveness compared with chlortetracycline (in words): considerably more effective
[1]; Erysipelothrix rhusiopathiae, 0.125 ppm
  inhibition at 0.125 ppm: 100%
[1]; Erysipelothrix rhusiopathiae, 0.25 ppm
  inhibition at 0.25 ppm: 100%
[1]; Erysipelothrix rhusiopathiae, 0.5 ppm
  inhibition at 0.5 ppm: 100%
[1]; Erysipelothrix rhusiopathiae, 1 ppm
  inhibition at 1 ppm: 100%
[1]; Erysipelothrix rhusiopathiae, 2 ppm
  inhibition at 2 ppm: 100%
[1]; Erysipelothrix rhusiopathiae, 4 ppm
  inhibition at 4 ppm: 100%
[1]; Erysipelothrix rhusiopathiae, 8 ppm
  inhibition at 8 ppm: 100%
[1]; Erysipelothrix rhusiopathiae, 16 ppm
  inhibition at 16 ppm: 100%
[1]; Erysipelothrix rhusiopathiae, 32 ppm
  inhibition at 32 ppm: 100%
[1]; Erysipelothrix rhusiopathiae, 64 ppm
  inhibition at 64 ppm: 100%
Escherichia coli; 0.125 ppm
  inhibition at 0.125 ppm: 0%
Escherichia coli; 0.25 ppm
  inhibition at 0.25 ppm: 0%
Escherichia coli; 0.5 ppm
  inhibition at 0.5 ppm: 0%
Escherichia coli; 1 ppm, read-out: % Inhibition
  inhibition at 1 ppm: 0%
Escherichia coli; 2 ppm
  inhibition at 2 ppm: 0%
Escherichia coli; 4 ppm, read-out: % Inhibition
  inhibition at 4 ppm: 0%
Escherichia coli; 8 ppm
  inhibition at 8 ppm: 0%
Escherichia coli; 16 ppm, read-out: % Inhibition
  inhibition at 16 ppm: 0%
Escherichia coli; 32 ppm
  inhibition at 32 ppm: 0%
Escherichia coli; 64 ppm, read-out: % Inhibition
  inhibition at 64 ppm: 0%
